“And” between values parts separate entries of the source, which are not always exact repeats. Identical values can stand only once.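 Test compounds were applied to cells in 96-well plates for 48 hours at 5 doses. The concentration for 50% growth inhibition is given as GI50. TGI: total growth inhibition.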
Assays:
Test in all cases: NCI anticancer screen, dose series, 48 h
SNB-19 CNS = tested on: SNB-19 CNS
IGROV1 ovarian = tested on: IGROV1 ovarian
HL-60(TB) leukemia = tested on: HL-60(TB) leukemia
NCI-H460 lung = tested on: NCI-H460 lung
MDA-N = tested on: MDA-N
NCI-H23 lung = tested on: NCI-H23 lung
SF-539 CNS = tested on: SF-539 CNS
A549 NSCLC = tested on: A549 NSCLC
HT29 colon = tested on: HT29 colon
TK-10 renal = tested on: TK-10 renal
SF-295 CNS = tested on: SF-295 CNS
OVCAR-3 ovarian = tested on: OVCAR-3 ovarian
MDA-MB-231 breast = tested on: MDA-MB-231 breast
MCF7 breast = tested on: MCF7 breast

SMILES	TGI (SNB-19 CNS)	TGI (IGROV1 ovarian)	TGI (HL-60(TB) leukemia)	TGI (NCI-H460 lung)	TGI (MDA-N)	TGI (NCI-H23 lung)	TGI (SF-539 CNS)	TGI (A549 NSCLC)	TGI (HT29 colon)	TGI (TK-10 renal)	TGI (SF-295 CNS)	TGI (OVCAR-3 ovarian)	TGI (MDA-MB-231 breast)	TGI (MCF7 breast)	GI50 (IGROV1 ovarian)	GI50 (NCI-H23 lung)	GI50 (A549 NSCLC)	GI50 (TK-10 renal)	GI50 (MDA-MB-231 breast)	GI50 (MCF7 breast)
N#CC12CC=C(c3ccccc3)N=C1NC(c1ccccc1)=CC2 (centres undefined)	> 100 µM	> 100 µM	50.5 µM	> 100 µM	> 100 µM	> 100 µM	> 100 µM	> 100 µM	> 100 µM	> 100 µM	> 100 µM	> 100 µM	> 100 µM	> 100 µM	–	–	–	–	–	–
Cc1ccc(S(=O)(=O)Nn2c(C)cc3ccc(S(=O)(=O)Nc4ccccc4[N+](=O)[O-])cc3c2=O)cc1	> 100 µM	> 100 µM	> 100 µM	> 100 µM	> 100 µM	> 100 µM	> 100 µM	> 100 µM	> 100 µM	> 100 µM	> 100 µM	> 100 µM	> 100 µM	> 100 µM	–	–	–	–	–	–
CSc1ncc2c(C#N)c3ccccn3c(=O)c2n1	> 100 µM	> 100 µM	> 100 µM	> 100 µM	> 100 µM	> 100 µM	> 100 µM	> 100 µM	> 100 µM	> 100 µM	> 100 µM	> 100 µM	> 100 µM	> 100 µM	–	–	–	–	–	–
O=[N+]([O-])c1ccc(OP(=O)(O)OCC2OC(CP(=O)(O)O)C(O)C2O)cc1 (centres undefined)	> 100 µM	> 100 µM	> 100 µM	> 100 µM	> 100 µM	> 100 µM	> 100 µM	> 100 µM	> 100 µM	> 100 µM	> 100 µM	> 100 µM	> 100 µM	> 100 µM	–	–	–	–	–	–
COc1cc(CC(C)N[C@@H](C)c2ccccc2)cc(OC)c1 (some centres undefined)	21.3 µM and > 100 µM	24.3 µM and > 100 µM	10.7 µM and > 100 µM	12.1 µM and > 100 µM	16.3 µM and > 100 µM	27.3 µM and > 100 µM	> 100 µM	27.1 µM and > 100 µM	13.1 µM and > 100 µM	24.7 µM and > 100 µM	21.5 µM and > 100 µM	21.1 µM and > 100 µM	27.2 µM and > 100 µM	20.1 µM and > 100 µM	10.6 µM and > 100 µM	11.6 µM and > 100 µM	13 µM and > 100 µM	12.2 µM and 53.8 µM	12.8 µM and > 100 µM	–
Nc1ncnc2c1ccn2CC=C(CO)CO	> 100 µM	> 100 µM	> 100 µM	> 100 µM	> 100 µM	> 100 µM	> 100 µM	> 100 µM	> 100 µM	> 100 µM	> 100 µM	> 100 µM	> 100 µM	> 100 µM	–	–	–	–	–	–
CC(=O)OCC1=C2C(OC(=O)C(C)C)CC3(COC(C)=O)OC3/C=C\C3(C)OC3C2OC1=O (centres undefined)	> 100 µM	> 100 µM	> 100 µM	> 100 µM	> 100 µM	> 100 µM	> 100 µM	> 100 µM	> 100 µM	> 100 µM	> 100 µM	> 100 µM	> 100 µM	> 100 µM	–	–	–	–	–	–
O=CN(O)CC(=O)O.[Ni]	> 100 µM	> 100 µM	> 100 µM	> 100 µM	> 100 µM	> 100 µM	> 100 µM	–	> 100 µM	–	> 100 µM	> 100 µM	> 100 µM	> 100 µM	–	–	–	–	–	–
CN1C(=O)CN=C(c2ccccc2F)c2cc(N=C=S)ccc21	> 100 µM	> 100 µM	> 100 µM	> 100 µM	> 100 µM	> 100 µM	–	> 100 µM	> 100 µM	> 100 µM	> 100 µM	> 100 µM	> 100 µM	> 100 µM	–	–	–	–	–	–
CCCC(=O)n1[nH]c(=O)n(C(C)(C)C)c1=O	> 100 µM	> 100 µM	> 100 µM	> 100 µM	> 100 µM	> 100 µM	–	> 100 µM	> 100 µM	> 100 µM	> 100 µM	> 100 µM	> 100 µM	> 100 µM	–	–	–	–	–	–
NS(=O)(=O)c1ccc(N=Nc2ccc(O)c(O)c2)cc1	84 µM	28.3 µM	86.9 µM	58.9 µM	> 100 µM	51.8 µM	45.1 µM	48.7 µM	66.5 µM	93 µM	> 100 µM	> 100 µM	38.8 µM	> 100 µM	–	–	–	–	–	–
Nc1nc(Cl)cc(NCC2(CO)CC(c3ccccc3)C2)n1 (centres undefined)	> 100 µM	> 100 µM	56.9 µM	> 100 µM	> 100 µM	> 100 µM	> 100 µM	> 100 µM	> 100 µM	> 100 µM	> 100 µM	> 100 µM	> 100 µM	> 100 µM	–	–	–	–	–	–
CC(C)(C)C(=O)CC(=O)C(F)(F)C(F)(F)C(F)(F)F.CC(C)(C)C(=O)CC(=O)C(F)(F)C(F)(F)C(F)(F)F.CC(C)(C)C(=O)CC(=O)C(F)(F)C(F)(F)C(F)(F)F.[Er]	> 100 µM	> 100 µM	> 100 µM	> 100 µM	> 100 µM	> 100 µM	> 100 µM	> 100 µM	> 100 µM	> 100 µM	> 100 µM	> 100 µM	> 100 µM	> 100 µM	–	–	–	–	–	> 100 µM
S=C1NCCN1C(=S)NC1CCCCC1	–	> 100 µM	96.7 µM	48 µM	> 100 µM	59.2 µM	70.7 µM	99.1 µM	57.2 µM	93.1 µM	> 100 µM	> 100 µM	> 100 µM	> 100 µM	–	–	–	–	–	–
O=C1CC(NC2CC(=O)c3c(Br)sc(Br)c32)c2c(Br)sc(Br)c21 (centres undefined)	28.4 µM	8.43 µM	7.65 µM	38.2 µM	5.82 µM	28.3 µM	–	38.9 µM	8.91 µM	6.47 µM	27.8 µM	> 100 µM	10.3 µM	8.44 µM	–	–	–	–	–	–
Oc1ccc(NCc2cc(O)ccc2O)cc1	35.1 µM	34.2 µM	11.7 µM	39.1 µM	11.1 µM	38.7 µM	56.4 µM	> 100 µM	57.6 µM	30.4 µM	38.3 µM	32 µM	29.2 µM	34.2 µM	–	–	–	–	–	–

From PubChem BioAssay (NCI)
